Holding throughout (type): in vivo
Common to all, as to conditions: active ingredient amount 31 g/ha, 14th day after application

Assay [1] relates to green foxtail (Setaria viridis L.). As to the kind of experiment: Test Example 2: soil application on the day after sowing, growth inhibition rate on 14th day. An outline of the steps: (§1)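 Upland soil pots; sowing, then next-day soil spraying of compound formulations (1,000 L/ha water) at defined a.i. doses. Day-14 visual rating of inhibition on a 0–100 scale, where 100 means complete kill.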

In assay [2] the test system is rice (Oryza sativa L.). Described as above. In short, it runs like this:
as §1

The test system of assay [3] is redroot pigweed (Amaranthus retroflexus L.). Described as above. An outline of the steps:
as §1

In assay [4] the test system is corn (Zea mays L.). The assay is described as above. In short, it runs like this:
as §1

The subject of assay [5] is wheat (Triticum aestivum L.). The description is as above. An outline of the steps:
as §1

Assay [6] deals with prickly sida (Sida spinosa L.). The description is as above. In short, it runs like this: as §1
Assay [7] concerns crabgrass (Digitaris sanquinalis L.). The description is as above. An outline of the steps: as §1
Assay [8] deals with soybean (Glycine max Merr.). Described as above. In short, it runs like this: as §1
For assay [9], the system named is barnyardgrass (Echinochloa crus-qalli L.). The assay is described as above. An outline of the steps: as §1
The subject of assay [10] is velvetleaf (Abutilon theophrasti MEDIC.). Described as above. In short, it runs like this:
as §1

Assay [11] relates to green foxtail (Setaria viridis L.). Description: Test Example 1: foliar treatment, growth inhibition rate on 14th day. An outline of the steps: (§2)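 Visual 0–100% inhibition scoring (100 = complete kill) at 14 days after foliar treatment of soil-grown seedlings at species-specific leaf stages, with the compound sprayed as a wettable powder or emulsifiable concentrate dilution.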

In assay [12] the test system is rice (Oryza sativa L.). The description is as above. An outline of the steps: as §2
In assay [13] the test system is redroot pigweed (Amaranthus retroflexus L.). The description is as above. In short, it runs like this:
(§3)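 Using a small sprayer, formulated compound in water (0.1 vol % surfactant, 1,000 L/ha) was applied to seedlings grown from seed in upland soil. Fourteen days on, growth state was observed and expressed as percent inhibition from 0 to 100.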

The test system of assay [14] is corn (Zea mays L.). The assay is described as above. An outline of the steps:
as §3

The test system of assay [15] is wild oat (Avena fatua L.). The assay is described as above. In short, it runs like this: as §2
For assay [16], the system named is wheat (Triticum aestivum L.). Described as above. An outline of the steps: as §3
For assay [17], the system named is italian ryegrass (Lolium multiflorum Lam.). The description is as above. An outline of the steps:
as §3

For assay [18], the system named is crabgrass (Digitaria sanquinalis L.). The assay is described as above. In short, it runs like this: as §3
The test system of assay [19] is soybean (Glycine max Merr.). The description is as above. An outline of the steps: as §2
In assay [20] the test system is barnyardgrass (Echinochloa crus-qalli L.). Described as above. In short, it runs like this: as §3

Each structure is given as a SMILES string.

As for `CCc1ccc(Oc2ncc(C(F)(F)F)cc2Cl)cc1-c1c(OC(C)=O)c(C)nn(C)c1=O` [1-45], the “Growth inhibition rate (%) Green foxtail” value in assay [1] and in assay [11] was 100% in each case. The “Growth inhibition rate (%) Rice” value in the assay on rice (Oryza sativa L.) [2] is recorded as 30%; with rice (Oryza sativa L.) [12], 99%. For the same molecule, the “Growth inhibition rate (%) Redroot pigweed” value in assay [3] was determined as 0%; in assay [13], 10%. The results for the “Growth inhibition rate (%) Corn” value in the assay on corn (Zea mays L.) [4] and in the assay on corn (Zea mays L.) [14] were 88% and 100%, respectively. In addition, the “Growth inhibition rate (%) Wheat” value is reported as 20% in assay [5] and 99% in assay [16]. Further, in assay [6], the “Growth inhibition rate (%) Prickly sida” value turned out to be 0%. For the same molecule, the “Growth inhibition rate (%) Crabgrass” value in [7] and in [18] was 100% throughout. Further, the “Growth inhibition rate (%) Soybean” value in [8] worked out at 0%; in assay [19], 10%. The “Growth inhibition rate (%) Barnyardgrass” value in assay [9] and in assay [20] was 100% each time. Further, the “Growth inhibition rate (%) Velvetleaf” value in assay [10] amounted to 0%. For the same molecule, in assay [15], the “Growth inhibition rate (%) Wild oat” value came to 100%. In addition, the “Growth inhibition rate (%) Italian ryegrass” value in [17] is recorded as 100%.
`CCc1ccc(Sc2ncc(C(F)(F)F)cc2Cl)cc1-c1c(OC(C)=O)c(C)nn(C)c1=O` [1-46]: the “Growth inhibition rate (%) Green foxtail” value in assay [1] amounted to 99%; in assay [11] it was 100%. Further, the “Growth inhibition rate (%) Rice” value was determined as 30% with rice (Oryza sativa L.) [2] and 80% with rice (Oryza sativa L.) [12]. Besides, the “Growth inhibition rate (%) Redroot pigweed” value in [3] is given as 0%; in assay [13], 30%. The “Growth inhibition rate (%) Corn” value in the assay with corn (Zea mays L.) [4] is listed as 0%; with corn (Zea mays L.) [14], 98%. The figures for the “Growth inhibition rate (%) Wheat” value in [5] and in [16] were 30% and 98%, respectively. Moreover, the “Growth inhibition rate (%) Prickly sida” value in assay [6] is 0%. The “Growth inhibition rate (%) Crabgrass” value in [7] came to 90%; in [18], 100%. For the same molecule, the “Growth inhibition rate (%) Soybean” value in assay [8] and in assay [19] was 0% in each case. Moreover, the “Growth inhibition rate (%) Barnyardgrass” value in assay [9] was found to be 80%; in [20], 100%. Besides, the “Growth inhibition rate (%) Velvetleaf” value in assay [10] is listed as 0%. In addition, the “Growth inhibition rate (%) Wild oat” value in [15] was 100%. In addition, the “Growth inhibition rate (%) Italian ryegrass” value in assay [17] is recorded as 99%.
For the molecule `Cc1ccc(Oc2ncc(C(F)(F)F)cc2Cl)cc1-c1c(OC(=O)OC(C)(C)C)c(C)nn(C)c1=O` [1-59], the results for the “Growth inhibition rate (%) Green foxtail” value in assay [1] and in assay [11] were 99% and 100%, respectively. Besides, the “Growth inhibition rate (%) Rice” value in the assay on rice (Oryza sativa L.) [2] is reported as 20%; in the assay on rice (Oryza sativa L.) [12], 40%. Moreover, the “Growth inhibition rate (%) Redroot pigweed” value in assay [3] and in [13] was 0% each time. Further, the “Growth inhibition rate (%) Corn” value in the assay with corn (Zea mays L.) [4] was found to be 0%; in the assay with corn (Zea mays L.) [14], 98%. The “Growth inhibition rate (%) Wheat” value came out at 0% in [5] and 93% in assay [16]. Also, the “Growth inhibition rate (%) Prickly sida” value in [6] is reported as 0%. For the same molecule, the “Growth inhibition rate (%) Crabgrass” value in [7] and in assay [18] was 100% throughout. In addition, the “Growth inhibition rate (%) Soybean” value in assay [8] and in assay [19] was 0% each time. Besides, the “Growth inhibition rate (%) Barnyardgrass” value in assay [9] and in assay [20] was 100% in each case. Also, the “Growth inhibition rate (%) Velvetleaf” value in assay [10] is 0%. The “Growth inhibition rate (%) Wild oat” value in [15] was determined as 99%. The “Growth inhibition rate (%) Italian ryegrass” value in assay [17] is on record as 98%.
For `Cc1ccc(Oc2ncc(C(F)(F)F)cc2Cl)cc1-c1c(OS(C)(=O)=O)c(C)nn(C)c1=O` [1-62], the “Growth inhibition rate (%) Green foxtail” value in assay [1] amounted to 99%; in assay [11] it was 100%. Further, the “Growth inhibition rate (%) Rice” value is 20% in the assay with rice (Oryza sativa L.) [2] and 88% with rice (Oryza sativa L.) [12]. Also, the “Growth inhibition rate (%) Redroot pigweed” value in assay [3] and in assay [13] was 0% throughout. In addition, the results for the “Growth inhibition rate (%) Corn” value with corn (Zea mays L.) [4] and in the assay on corn (Zea mays L.) [14] were 0% and 100%, respectively. Besides, the entries for the “Growth inhibition rate (%) Wheat” value in [5] and in assay [16] were 0% and 90%, respectively. Further, the “Growth inhibition rate (%) Prickly sida” value in [6] was 0%. In addition, the “Growth inhibition rate (%) Crabgrass” value in [7] and in assay [18] was 100% throughout. For the same molecule, the “Growth inhibition rate (%) Soybean” value in [8] and in [19] was 0% in each case. Further, the “Growth inhibition rate (%) Barnyardgrass” value in assay [9] and in [20] was 100% throughout. Also, the “Growth inhibition rate (%) Velvetleaf” value in [10] stood at 0%. Besides, the “Growth inhibition rate (%) Wild oat” value in assay [15] was 99%. Besides, in assay [17], the “Growth inhibition rate (%) Italian ryegrass” value was 98%.
On to `CCn1nc(C)c(O)c(-c2cc(Oc3ncc(C(F)(F)F)cc3Cl)ccc2C)c1=O` [1-65], for which the “Growth inhibition rate (%) Green foxtail” value was 99% in assay [1] and 100% in assay [11]. The “Growth inhibition rate (%) Rice” value was found to be 20% in the assay on rice (Oryza sativa L.) [2] and 60% in the assay on rice (Oryza sativa L.) [12]. Further, the “Growth inhibition rate (%) Redroot pigweed” value in assay [3] and in assay [13] was 0% throughout. Also, the “Growth inhibition rate (%) Corn” value was 0% in the assay with corn (Zea mays L.) [4] and 98% in the assay on corn (Zea mays L.) [14]. Also, the “Growth inhibition rate (%) Wheat” value in [5] amounted to 0%; in [16] it was 10%. The “Growth inhibition rate (%) Prickly sida” value in assay [6] was found to be 0%. Moreover, the “Growth inhibition rate (%) Crabgrass” value in [7] and in [18] was 100% each time. Moreover, the “Growth inhibition rate (%) Soybean” value in assay [8] and in [19] was 0% throughout. Besides, the “Growth inhibition rate (%) Barnyardgrass” value came to 100% in assay [9] and 99% in assay [20]. In assay [10], the “Growth inhibition rate (%) Velvetleaf” value is given as 0%. Also, in assay [15], the “Growth inhibition rate (%) Wild oat” value turned out to be 98%. The “Growth inhibition rate (%) Italian ryegrass” value in assay [17] was found to be 98%.
As for `CCc1ccc(Oc2ncc(C(F)(F)F)cc2Cl)cc1-c1c(O)cnn(C)c1=O` [1-95], the “Growth inhibition rate (%) Green foxtail” value in assay [1] and in assay [11] was 100% in each case. Moreover, the “Growth inhibition rate (%) Rice” value in the assay with rice (Oryza sativa L.) [2] was 50%; in the assay on rice (Oryza sativa L.) [12] it was 80%. Besides, the “Growth inhibition rate (%) Redroot pigweed” value in assay [3] and in [13] was 0% throughout. For the same molecule, the “Growth inhibition rate (%) Corn” value with corn (Zea mays L.) [4] was 80%; in the assay with corn (Zea mays L.) [14], 100%. Besides, the “Growth inhibition rate (%) Wheat” value in assay [5] was found to be 0%; in [16] it was 45%. Moreover, the “Growth inhibition rate (%) Prickly sida” value in assay [6] is 0%. Also, the “Growth inhibition rate (%) Crabgrass” value in [7] and in assay [18] was 100% in each case. Besides, the “Growth inhibition rate (%) Soybean” value in assay [8] and in assay [19] was 0% each time. Besides, the “Growth inhibition rate (%) Barnyardgrass” value in [9] and in assay [20] was 100% each time. For the same molecule, the “Growth inhibition rate (%) Velvetleaf” value in assay [10] is recorded as 0%. Besides, the “Growth inhibition rate (%) Wild oat” value in assay [15] was determined as 99%. Besides, the “Growth inhibition rate (%) Italian ryegrass” value in assay [17] was 95%.

The values are drawn from US10870638B2, “Pyridazinone compound or its salt, and herbicide containing it” (ISHIHARA SANGYO KAISHA, LTD., priority 2016, dated 2020).
